Laboratory results published in patent US20170342312A1, “COMPOSITION AND METHOD FOR VISCOSITY CONTROL IN DELIVERY APPLICATIONS USING SUBSEA UMBILICALS” (BAKER HUGHES, A GE COMPANY, LLC, priority 2016, published 2017).
“And” between values parts separate entries of the source, which are not always exact repeats. Equal entries are not always repeated. Where two headings read alike, the source gives them in different places.

What was measured:
[1] = Solvent viscosity at 20° C.; type: physicochemical; conditions: 20° C./1 Bar
Solvent freezing point = type: physicochemical
Solvent flash point = type: physicochemical
[2] = at 20° C.; background statement; cited from earlier work
invertebrates = conditions: in vivo; cited from earlier work
[3] = according to MSDS; cited from earlier work
fish = conditions: according to MSDS; cited from earlier work
algae = conditions: according to MSDS; cited from earlier work
[4] = Corrosion rate, autoclave tests; conditions: corrosion values of Tables 2 and 3
Protocol: The corrosion rates shown in Table 2 were obtained using autoclave tests at 80° C., a partial pressure of CO2 of 0.75 bar, a brine/hydrocarbon ratio of 99 to 1 and a shear stress of 60 Pa.

[5] = according to MSDS; cited from earlier work; remark: listed apart in the source
[6] = listed as ethylene glycol n-butyl ether acetate

Structure (SMILES) | Viscosity [1] [cP] | Freezing Point (Solvent freezing point) [°C] | Flash Point (Solvent flash point) [°C] | further results
O [Water] | 0.895 | 0 |  | 
OCCO [Monoethylene Glycol] | 17.3 | −13.0 | 116 | Viscosity [2]: 17 cP
CCCCOCCOC(C)=O [Ethylene Glycol N-Butyl Ether Acetate, ethylene glycol n-butyl ether acetate] | 1.81 | −64.0 | 78 | EC50 for invertebrates (invertebrates): > 10 µg/mL; Log Pow bioaccumulation potential [3]: less than 3; LC50 for fish (fish): > 10 µg/mL; EbC50 for algae (algae): > 10 mg/L; Viscosity [1, 6]: 1.79 cP and 1.81 cP; Freezing Point (Solvent freezing point; [6]): about −64 °C; Flash Point (Solvent flash point; [6]): about 78 °C; effect of solvent on performance of the corrosion inhibitors [4]: did not significantly affect the performance of the corrosion inhibitors; biodegradable in seawater [5]: 77-90%
CC(C)O [Isopropanol] | 2.1 | −89.0 | 14 | 
CCCCOCCO [Butyl Cellosolve ™, ethylene glycol monobutyl ether] | 2.9 | −75.0 | 67.0 | 
CO [Methanol] | 0.59 | −97.8 | 12 | 
CC(O)CO (stereo not drawn) [Propylene Glycol] | 55.0 | −59.0 | 99.0 | 
